What all share (type): cell-based
One data set concerns the target Adenylate cyclase type 8 (Homo sapiens, UniProt P40145). The experiment in a line: Agonist activity at recombinant human AC8 expressed in HEK293 cells assessed as increase in cAMP level at 50 uM measured after 30 mins by LANCE Ultra cAMP Detection kit method. Conditions: hek293, 0.5 h.
The target in data set [1] is T1, Adenylate cyclase type 2 (Homo sapiens, UniProt Q08462). The experiment in a line: Agonist activity at recombinant human AC2 expressed in HEK293 cells assessed as increase in cAMP level measured after 30 mins by LANCE Ultra cAMP Detection kit method.
Data set [2] concerns the target T1, Adenylate cyclase type 2. The experiment in a line: Agonist activity at recombinant human AC2 expressed in HEK293 cells assessed as increase in cAMP level by measuring cAMP level at 50 uM measured after 30 mins by LANCE Ultra cAMP Detection kit method relative to control. The following applies: filed as agonist.
The target of another data set is Adenylate cyclase type 1 (Homo sapiens, UniProt Q08828). The experiment in a line: Agonist activity at recombinant human AC1 expressed in HEK293 cells assessed as increase in cAMP level at 50 uM measured after 30 mins by LANCE Ultra cAMP Detection kit method. The following applies: hek293, 0.5 h.
For a further data set, the target named is Adenylate cyclase type 5 (Homo sapiens, UniProt O95622). The experiment in a line: Agonist activity at recombinant human AC5 expressed in HEK293 cells assessed as increase in cAMP level at 50 uM measured after 30 mins by LANCE Ultra cAMP Detection kit method. The following applies: hek293, 0.5 h.
Data set [3] has as its target T1, Adenylate cyclase type 2. The experiment in a line: Potency index, ratio of forskolin EC50 to test compound EC50 for agonist activity at recombinant human AC2 expressed in HEK293 cells assessed as increase in cAMP level.
In data set [4] the target is T1, Adenylate cyclase type 2. The experiment in a line: Agonist activity at recombinant human AC2 expressed in HEK293 cells assessed as reduction in IL6 level by measuring IL6 level at 50 uM measured after 24 hrs by ELISA relative to control. Also noted: scale not given: the % may be the effect or the level left.
For data set [5], the target named is T1, Adenylate cyclase type 2. The experiment in a line: Agonist activity at recombinant human AC2 expressed in HEK293 cells assessed as increase in cAMP level at 50 uM measured after 30 mins by LANCE Ultra cAMP Detection kit method. Conditions: filed as agonist.

For 35 compounds, Activity, EC50 and Ratio EC50 results are on record in ChEMBL document CHEMBL4680207, “The discovery, design and synthesis of potent agonists of adenylyl cyclase type 2 by virtual screening combining biological evaluation” (Eur J Med Chem, 2020).

SMILES strings stand for the structures. Activity calls are given as the source filed them. The rule behind the calls is not given here.

T1 sequence (Q08462 whole entry): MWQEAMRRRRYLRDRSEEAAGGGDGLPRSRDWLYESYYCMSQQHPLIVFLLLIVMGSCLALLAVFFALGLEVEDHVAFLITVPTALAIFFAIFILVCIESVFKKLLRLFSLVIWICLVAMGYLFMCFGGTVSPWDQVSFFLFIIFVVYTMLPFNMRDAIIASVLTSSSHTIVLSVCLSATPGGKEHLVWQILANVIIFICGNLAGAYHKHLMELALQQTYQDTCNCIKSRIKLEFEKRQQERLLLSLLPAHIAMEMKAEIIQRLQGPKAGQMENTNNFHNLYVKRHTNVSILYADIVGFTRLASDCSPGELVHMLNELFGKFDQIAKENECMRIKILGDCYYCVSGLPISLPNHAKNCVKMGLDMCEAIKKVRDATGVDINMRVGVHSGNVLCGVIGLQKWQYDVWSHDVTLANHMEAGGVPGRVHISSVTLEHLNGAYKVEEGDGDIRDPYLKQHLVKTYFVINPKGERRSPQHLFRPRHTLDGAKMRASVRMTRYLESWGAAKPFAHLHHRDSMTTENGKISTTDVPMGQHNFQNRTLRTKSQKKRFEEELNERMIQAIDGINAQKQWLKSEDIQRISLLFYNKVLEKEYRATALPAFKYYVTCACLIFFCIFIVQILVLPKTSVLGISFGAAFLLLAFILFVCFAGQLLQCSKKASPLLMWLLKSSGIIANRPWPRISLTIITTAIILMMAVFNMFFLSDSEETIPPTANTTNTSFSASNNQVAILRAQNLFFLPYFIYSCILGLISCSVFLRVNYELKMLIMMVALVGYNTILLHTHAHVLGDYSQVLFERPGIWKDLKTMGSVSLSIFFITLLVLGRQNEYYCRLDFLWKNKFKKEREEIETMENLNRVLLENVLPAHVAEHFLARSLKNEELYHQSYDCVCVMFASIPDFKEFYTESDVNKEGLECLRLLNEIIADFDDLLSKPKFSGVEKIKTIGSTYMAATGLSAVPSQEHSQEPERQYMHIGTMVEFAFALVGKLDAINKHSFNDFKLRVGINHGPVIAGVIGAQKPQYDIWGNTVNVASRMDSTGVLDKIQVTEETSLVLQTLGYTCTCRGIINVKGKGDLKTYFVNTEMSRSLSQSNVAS
Adenylate cyclase type 8, sequence (P40145 whole entry): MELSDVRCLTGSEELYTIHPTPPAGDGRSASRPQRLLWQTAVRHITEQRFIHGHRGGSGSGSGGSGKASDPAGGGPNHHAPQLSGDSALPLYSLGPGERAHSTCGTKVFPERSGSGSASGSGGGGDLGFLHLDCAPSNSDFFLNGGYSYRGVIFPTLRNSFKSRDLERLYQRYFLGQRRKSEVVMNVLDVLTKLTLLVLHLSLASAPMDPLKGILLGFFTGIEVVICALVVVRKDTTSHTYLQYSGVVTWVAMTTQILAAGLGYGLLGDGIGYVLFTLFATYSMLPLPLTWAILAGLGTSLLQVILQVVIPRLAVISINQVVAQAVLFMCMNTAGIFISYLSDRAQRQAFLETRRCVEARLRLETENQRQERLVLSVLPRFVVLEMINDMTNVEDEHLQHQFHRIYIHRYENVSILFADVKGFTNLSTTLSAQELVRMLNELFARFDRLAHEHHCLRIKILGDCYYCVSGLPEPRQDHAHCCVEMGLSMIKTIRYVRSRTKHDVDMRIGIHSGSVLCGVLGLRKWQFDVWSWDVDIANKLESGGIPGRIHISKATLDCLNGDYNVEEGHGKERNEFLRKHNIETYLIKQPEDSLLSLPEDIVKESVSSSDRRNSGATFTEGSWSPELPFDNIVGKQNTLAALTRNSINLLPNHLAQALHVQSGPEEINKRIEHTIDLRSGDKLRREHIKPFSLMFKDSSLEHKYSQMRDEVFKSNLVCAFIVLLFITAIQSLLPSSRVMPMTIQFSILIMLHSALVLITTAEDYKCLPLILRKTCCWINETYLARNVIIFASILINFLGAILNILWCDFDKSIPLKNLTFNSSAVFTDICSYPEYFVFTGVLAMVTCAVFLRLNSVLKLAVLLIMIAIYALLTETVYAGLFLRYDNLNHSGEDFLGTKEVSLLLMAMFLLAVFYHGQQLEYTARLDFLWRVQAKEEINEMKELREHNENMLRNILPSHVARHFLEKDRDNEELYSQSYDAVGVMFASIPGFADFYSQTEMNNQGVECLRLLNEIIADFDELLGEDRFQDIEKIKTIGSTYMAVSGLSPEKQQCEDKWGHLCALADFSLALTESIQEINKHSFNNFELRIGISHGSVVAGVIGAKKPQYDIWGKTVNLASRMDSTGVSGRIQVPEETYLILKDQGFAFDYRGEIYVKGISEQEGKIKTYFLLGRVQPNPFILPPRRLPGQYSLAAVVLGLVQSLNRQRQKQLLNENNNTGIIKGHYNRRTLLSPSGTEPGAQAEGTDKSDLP
Adenylate cyclase type 5, sequence (O95622 whole entry): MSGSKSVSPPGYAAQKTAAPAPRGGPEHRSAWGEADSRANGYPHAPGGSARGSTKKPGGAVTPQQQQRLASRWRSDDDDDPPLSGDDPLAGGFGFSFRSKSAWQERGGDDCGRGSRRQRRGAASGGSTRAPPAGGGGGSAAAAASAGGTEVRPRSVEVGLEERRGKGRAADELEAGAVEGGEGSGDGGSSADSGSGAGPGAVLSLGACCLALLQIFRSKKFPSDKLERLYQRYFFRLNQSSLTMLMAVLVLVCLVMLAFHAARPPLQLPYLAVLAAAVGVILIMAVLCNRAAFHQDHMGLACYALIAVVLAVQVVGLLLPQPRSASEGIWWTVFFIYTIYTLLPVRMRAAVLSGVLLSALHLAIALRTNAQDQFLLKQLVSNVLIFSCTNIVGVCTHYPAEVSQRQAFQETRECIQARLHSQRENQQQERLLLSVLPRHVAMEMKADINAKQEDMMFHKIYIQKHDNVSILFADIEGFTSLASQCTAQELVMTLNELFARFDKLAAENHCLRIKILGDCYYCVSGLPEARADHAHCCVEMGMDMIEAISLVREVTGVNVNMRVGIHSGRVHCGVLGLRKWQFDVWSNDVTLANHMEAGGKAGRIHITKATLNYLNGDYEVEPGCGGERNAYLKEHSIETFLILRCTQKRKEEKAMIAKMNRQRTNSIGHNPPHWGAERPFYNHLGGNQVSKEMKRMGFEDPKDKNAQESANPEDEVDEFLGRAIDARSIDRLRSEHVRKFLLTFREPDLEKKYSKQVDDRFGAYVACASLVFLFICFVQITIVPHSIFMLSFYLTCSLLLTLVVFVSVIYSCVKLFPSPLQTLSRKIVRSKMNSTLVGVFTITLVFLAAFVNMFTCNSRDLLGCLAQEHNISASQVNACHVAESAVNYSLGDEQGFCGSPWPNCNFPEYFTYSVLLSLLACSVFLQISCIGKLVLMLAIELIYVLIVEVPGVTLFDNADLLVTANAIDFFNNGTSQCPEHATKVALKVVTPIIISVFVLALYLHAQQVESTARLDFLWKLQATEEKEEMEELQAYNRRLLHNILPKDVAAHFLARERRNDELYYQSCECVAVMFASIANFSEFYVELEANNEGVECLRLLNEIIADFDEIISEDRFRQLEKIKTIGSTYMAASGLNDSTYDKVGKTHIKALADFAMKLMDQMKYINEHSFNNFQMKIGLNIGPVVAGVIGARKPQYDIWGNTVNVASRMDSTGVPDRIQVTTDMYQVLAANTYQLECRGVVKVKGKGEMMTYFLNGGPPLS
Adenylate cyclase type 1, sequence (Q08828 whole entry): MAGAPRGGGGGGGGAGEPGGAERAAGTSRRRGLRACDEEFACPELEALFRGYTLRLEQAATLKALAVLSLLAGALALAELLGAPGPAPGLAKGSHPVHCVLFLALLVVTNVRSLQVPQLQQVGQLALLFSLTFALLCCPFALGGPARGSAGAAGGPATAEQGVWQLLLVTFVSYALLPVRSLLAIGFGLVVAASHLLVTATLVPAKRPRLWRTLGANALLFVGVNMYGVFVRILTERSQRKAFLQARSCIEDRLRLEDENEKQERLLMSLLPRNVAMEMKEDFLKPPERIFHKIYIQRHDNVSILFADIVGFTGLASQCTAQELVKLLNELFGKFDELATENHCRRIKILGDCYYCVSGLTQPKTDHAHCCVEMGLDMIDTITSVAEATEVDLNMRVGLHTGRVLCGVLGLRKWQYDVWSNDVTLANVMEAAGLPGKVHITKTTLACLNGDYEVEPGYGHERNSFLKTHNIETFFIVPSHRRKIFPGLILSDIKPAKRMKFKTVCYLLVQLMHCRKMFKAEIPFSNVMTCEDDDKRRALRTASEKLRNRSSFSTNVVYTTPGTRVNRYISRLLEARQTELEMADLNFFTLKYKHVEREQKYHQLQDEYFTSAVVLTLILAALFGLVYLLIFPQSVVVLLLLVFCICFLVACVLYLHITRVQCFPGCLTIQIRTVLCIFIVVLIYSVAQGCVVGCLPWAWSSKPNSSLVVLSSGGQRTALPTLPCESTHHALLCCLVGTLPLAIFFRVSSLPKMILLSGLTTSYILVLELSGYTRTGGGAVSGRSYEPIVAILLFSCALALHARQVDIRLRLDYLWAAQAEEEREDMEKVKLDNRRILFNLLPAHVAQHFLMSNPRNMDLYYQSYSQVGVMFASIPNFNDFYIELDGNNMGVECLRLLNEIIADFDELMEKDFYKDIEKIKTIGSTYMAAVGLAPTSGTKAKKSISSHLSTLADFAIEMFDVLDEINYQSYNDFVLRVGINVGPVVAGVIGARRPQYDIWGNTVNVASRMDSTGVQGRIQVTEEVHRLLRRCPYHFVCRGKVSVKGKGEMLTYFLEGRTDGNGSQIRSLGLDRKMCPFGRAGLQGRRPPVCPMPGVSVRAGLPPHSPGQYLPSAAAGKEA

Consider `CCOC(=O)C1(Cc2ccc(Cl)cc2Cl)C(=O)Nc2ccccc21` (stereo unspecified), for which the result at Adenylate cyclase type 8 was Active.

Consider `Cc1cc(C)cc(N2C(=O)[C@H]3[C@@H](c4ccc(Cl)cc4)OC4(C(=O)c5ccccc5C4=O)[C@H]3C2=O)c1`, for which the EC50 on Adenylate cyclase type 2 [1] stood at 310 nM. For the same compound, the Activity at Adenylate cyclase type 2 [2] is 96.9%.

On to `Cc1ccc([C@H]2OC3(C(=O)c4ccccc4C3=O)[C@H]3C(=O)N(C4CCCCC4)C(=O)[C@@H]23)cc1`, for which, on Adenylate cyclase type 2 [1], the EC50 was found to be 1290 nM. Besides, the Activity on Adenylate cyclase type 2 [2] turned out to be 69.5%.

In the case of `Cc1ccc([C@H]2OC3(C(=O)c4cccc(F)c4C3=O)[C@H]3C(=O)N(c4ccccc4Cl)C(=O)[C@@H]23)cc1` (mixture of isomers), at Adenylate cyclase type 2 [1], the EC50 came to 345 nM. For the same compound, the Activity on Adenylate cyclase type 2 [2] came out at 59.1%.

`Cc1cccc([C@H]2OC3(C(=O)c4ccccc4C3=O)[C@H]3C(=O)N(c4ccccc4Cl)C(=O)[C@@H]23)c1`: at Adenylate cyclase type 2 [1], the EC50 was 6810 nM. Moreover, the Activity at Adenylate cyclase type 2 [2] was 57.4%.

Take `Cc1ccc([C@H]2OC3(C(=O)c4ccccc4C3=O)[C@H]3C(=O)N(C4CCCC4)C(=O)[C@@H]23)cc1`: the EC50 at Adenylate cyclase type 2 [1] came to 3440 nM. Also, the Activity at Adenylate cyclase type 2 [2] was 64.9%.

On to `O=C1[C@H]2[C@@H](c3ccc(Cl)cc3)OC3(C(=O)c4ccccc4C3=O)[C@H]2C(=O)N1c1ccc(F)cc1`, for which the EC50 on Adenylate cyclase type 2 [1] is 530 nM. Moreover, the Activity on Adenylate cyclase type 2 [2] was determined as 100%.

As for `Cc1ccc([C@H]2OC3(C(=O)c4cccc(C)c4C3=O)[C@H]3C(=O)N(c4ccccc4Cl)C(=O)[C@@H]23)cc1` (mixture of isomers), the concentration for a half-maximal effect (EC50) at Adenylate cyclase type 2 [1] is 1080 nM. Also, the Activity on Adenylate cyclase type 2 [2] is 59.3%.

Take `Cc1ccc([C@H]2OC3(C(=O)c4ccccc4C3=O)[C@H]3C(=O)N(c4ccc(C)c(C)c4)C(=O)[C@@H]23)cc1`: the half-maximal effective concentration (EC50) on Adenylate cyclase type 2 [1] came to 210 nM. At Adenylate cyclase type 2 [2], the Activity came to 104%.

As for `Cc1ccc([C@H]2OC3(C(=O)c4ccccc4C3=O)[C@H]3C(=O)N(c4ccc(C)c(Cl)c4)C(=O)[C@@H]23)cc1`, the EC50 at Adenylate cyclase type 2 [1] was found to be 750 nM. The Activity on Adenylate cyclase type 2 [2] worked out at 96.4%.

As to `CCOc1ccc(N2C(=O)[C@H]3[C@@H](c4ccccc4)OC4(C(=O)c5ccccc5C4=O)[C@H]3C2=O)cc1`, the 50% effective concentration (EC50) on Adenylate cyclase type 2 [1] was 32300 nM. Besides, at Adenylate cyclase type 2 [2], the Activity turned out to be 82.3%.

Regarding `COc1cc(C)ccc1N1C(=O)[C@H]2[C@@H](c3cccc(C)c3)OC3(C(=O)c4ccccc4C3=O)[C@H]2C1=O`, the concentration for a half-maximal effect (EC50) at Adenylate cyclase type 2 [1] amounted to 5960 nM. Also, the Activity at Adenylate cyclase type 2 [2] worked out at 103%.

With `Cc1ccc(Cl)cc1N1C(=O)[C@H]2[C@@H](c3ccccc3)OC3(C(=O)c4ccccc4C3=O)[C@H]2C1=O`, the EC50 at Adenylate cyclase type 2 [1] amounted to 3120 nM. In addition, on Adenylate cyclase type 2 [2], the Activity was 101%.

With `Cc1ccc([C@H]2OC3(C(=O)c4ccc(Br)cc4C3=O)[C@H]3C(=O)N(c4ccccc4Cl)C(=O)[C@@H]23)cc1` (stereo partly specified), the half-maximal effective concentration (EC50) on Adenylate cyclase type 2 [1] was 90 nM. Moreover, the Activity entry at Adenylate cyclase type 1 was “Not Active”; at Adenylate cyclase type 5, “Not Active”; at Adenylate cyclase type 8, “Not Active”; at Adenylate cyclase type 2 [2], 87.8%; at Adenylate cyclase type 2 [4], 37.1%. Further, on Adenylate cyclase type 2 [3], the Ratio EC50 was 160.

Regarding `CC(C)c1ccc([C@H]2OC3(C(=O)c4ccccc4C3=O)[C@H]3C(=O)N(c4ccc(F)cc4)C(=O)[C@@H]23)cc1`, on Adenylate cyclase type 2 [1], the concentration giving a half-maximal response (EC50) is 1300 nM. The Activity at Adenylate cyclase type 2 [2] was 89.3%.

In the case of `Cc1ccc([C@H]2OC3(C(=O)c4ccccc4C3=O)[C@H]3C(=O)N(c4ccc(F)c(Cl)c4)C(=O)[C@@H]23)cc1`, the EC50 on Adenylate cyclase type 2 [1] worked out at 520 nM. Moreover, the Activity at Adenylate cyclase type 2 [2] turned out to be 103%.

For the compound `CCOc1ccc(N2C(=O)[C@H]3[C@@H](c4ccc(C)cc4)OC4(C(=O)c5ccccc5C4=O)[C@H]3C2=O)cc1`, the concentration for a half-maximal effect (EC50) on Adenylate cyclase type 2 [1] was determined as 10800 nM. Also, on Adenylate cyclase type 2 [2], the Activity amounted to 97.7%.

As to `Cc1ccc([C@H]2OC3(C(=O)c4ccc(Cl)cc4C3=O)[C@H]3C(=O)N(c4ccccc4Cl)C(=O)[C@@H]23)cc1` (mixture of isomers), the concentration giving a half-maximal response (EC50) at Adenylate cyclase type 2 [1] was determined as 236 nM. For the same compound, at Adenylate cyclase type 2 [2], the Activity stood at 96.2%.

On to `Cc1ccc([C@H]2OC3(C(=O)c4ccccc4C3=O)[C@H]3C(=O)N(c4ccc(F)cc4)C(=O)[C@@H]23)cc1`, for which, on Adenylate cyclase type 2 [1], the EC50 turned out to be 1640 nM. Besides, at Adenylate cyclase type 2 [2], the Activity came out at 99.5%.

`CCc1ccc([C@H]2OC3(C(=O)c4ccccc4C3=O)[C@H]3C(=O)N(c4ccc(C)cc4)C(=O)[C@@H]23)cc1`: the EC50 at Adenylate cyclase type 2 [1] came to 670 nM. Moreover, the Activity at Adenylate cyclase type 2 [2] was found to be 95.9%.

On to `Cc1ccc([C@H]2OC3(C(=O)c4ccc(F)cc4C3=O)[C@H]3C(=O)N(c4ccccc4Cl)C(=O)[C@@H]23)cc1` (mixture of isomers), for which the half-maximal effective concentration (EC50) at Adenylate cyclase type 2 [1] was 692 nM. Further, the Activity at Adenylate cyclase type 2 [2] was 80.8%.

In the case of `COc1ccc(N2C(=O)[C@H]3[C@@H](c4ccc(C)cc4)OC4(C(=O)c5ccccc5C4=O)[C@H]3C2=O)cc1`, at Adenylate cyclase type 2 [1], the EC50 turned out to be 17100 nM. For the same compound, the Activity at Adenylate cyclase type 2 [2] was 93.6%.

For `Cc1ccc([C@H]2OC3(C(=O)c4cccc(Br)c4C3=O)[C@H]3C(=O)N(c4ccccc4Cl)C(=O)[C@@H]23)cc1` (mixture of isomers), the EC50 at Adenylate cyclase type 2 [1] turned out to be 11600 nM. The Activity on Adenylate cyclase type 2 [2] amounted to 76%.

On to `Cc1ccc([C@H]2OC3(C(=O)c4ccccc4C3=O)[C@H]3C(=O)N(C4CC4)C(=O)[C@@H]23)cc1`, for which, at Adenylate cyclase type 2 [1], the EC50 came to 3370 nM. The Activity at Adenylate cyclase type 2 [2] came out at 70.8%.

On to `COc1cccc(N2C(=O)[C@H]3[C@@H](c4ccc(C)cc4)OC4(C(=O)c5ccccc5C4=O)[C@H]3C2=O)c1`, for which, on Adenylate cyclase type 2 [1], the EC50 came out at 960 nM. Further, the Activity at Adenylate cyclase type 2 [2] was found to be 84.6%.

With `CCC[C@H]1OC2(C(=O)c3ccccc3C2=O)[C@H]2C(=O)N(c3ccccc3Cl)C(=O)[C@@H]12`, the EC50 on Adenylate cyclase type 2 [1] stood at 4290 nM. The Activity at Adenylate cyclase type 2 [2] was determined as 59.6%.

On to `Cc1ccc([C@H]2OC3(C(=O)c4ccc(C)cc4C3=O)[C@H]3C(=O)N(c4ccccc4Cl)C(=O)[C@@H]23)cc1` (mixture of isomers), for which the EC50 on Adenylate cyclase type 2 [1] is 300 nM. For the same compound, on Adenylate cyclase type 2 [2], the Activity was found to be 98.1%.

As for `Cc1ccc([C@H]2OC3(C(=O)c4ccccc4C3=O)[C@H]3C(=O)N(C)C(=O)[C@@H]23)cc1`, at Adenylate cyclase type 2 [1], the concentration for a half-maximal effect (EC50) was found to be 3080 nM. The Activity at Adenylate cyclase type 2 [2] came to 62%.

For `COc1cccc([C@H]2OC3(C(=O)c4ccccc4C3=O)[C@H]3C(=O)N(c4ccc(C)cc4)C(=O)[C@@H]23)c1`, at Adenylate cyclase type 2 [1], the 50% effective concentration (EC50) was found to be 1600 nM. The Activity at Adenylate cyclase type 2 [2] is 97.8%.

With `Cc1ccc([C@H]2OC3(C(=O)c4ccccc4C3=O)[C@H]3C(=O)N(c4ccccc4Cl)C(=O)[C@@H]23)cc1`, the concentration giving a half-maximal response (EC50) at Adenylate cyclase type 2 [1] was 170 nM. At Adenylate cyclase type 2 [2], the Activity worked out at 93.6%.

As to `O=C1[C@H]2[C@@H](c3ccc(Cl)cc3)OC3(C(=O)c4ccccc4C3=O)[C@H]2C(=O)N1c1cccc(F)c1`, the EC50 at Adenylate cyclase type 2 [1] came to 3530 nM. Besides, at Adenylate cyclase type 2 [2], the Activity was determined as 99.9%.

`O=C1[C@H]2[C@@H](c3ccccc3)OC3(C(=O)c4ccccc4C3=O)[C@H]2C(=O)N1c1cccc(Cl)c1`: the result on Adenylate cyclase type 2 [5] was Active. Besides, the 50% effective concentration (EC50) at Adenylate cyclase type 2 [1] was 8100 nM. In addition, the Activity entry at Adenylate cyclase type 2 [1] (filed as agonist) is “Dose-dependent effect”; at Adenylate cyclase type 2 [2], 103%.

As for `Cc1ccc([C@H]2OC3(C(=O)c4ccccc4C3=O)[C@H]3C(=O)N(c4ccc(C)cc4F)C(=O)[C@@H]23)cc1`, the EC50 on Adenylate cyclase type 2 [1] worked out at 770 nM. Also, at Adenylate cyclase type 2 [2], the Activity turned out to be 107%.

For the compound `Cc1ccc([C@H]2OC3(C(=O)c4cccc(Cl)c4C3=O)[C@H]3C(=O)N(c4ccccc4Cl)C(=O)[C@@H]23)cc1` (mixture of isomers), the EC50 on Adenylate cyclase type 2 [1] amounted to 301 nM. In addition, the Activity at Adenylate cyclase type 2 [2] turned out to be 88.5%.

As for `CCOc1ccc(N2C(=O)[C@H]3[C@@H](c4ccc(F)cc4)OC4(C(=O)c5ccccc5C4=O)[C@H]3C2=O)cc1`, on Adenylate cyclase type 2 [1], the concentration for a half-maximal effect (EC50) stood at 39300 nM. In addition, the Activity at Adenylate cyclase type 2 [2] is 91%.
